Data from patent US9757408B2 (Hayashibara Co., Ltd., priority 2010, dated 2017).
Marks after values point to notes of the source that are not given here.

Experiments:
[1] = D-MEM medium, absence of human serum, 100 μM, 37° C., 24 hours
[2] = test system: IL-10 in serum of mice administered with LPS; experiment: Serum IL-10 in LPS-administered mice, oral administration (Experiment 11); type: in vivo, BALB/c mice; settings: LPS 18 mg/kg i.p., serum 90 min after LPS
Procedure: (§1) The seven mice in another one group were orally administered through a gastric tube with 3′-glucosyl-adenosine N1-oxide, which had been dissolved in PBS, at a dose of 200 mg/kg body weight in a liquid volume of 0.2 mL/head (Experiment group 4). The seven mice in the remaining one group were orally administered through a gastric tube with PBS in a liquid volume of 0.2 mL/head (Experiment group 1). All the mice were intraperitoneally administered with an LPS specimen derived from E. coli (055:B5), commercialized by Sigma-Aldrich Corporation, St. Louis, Mo. USA, which had been dissolved in PBS, at a dose of 18 mg/kg body weight (Experiment groups 1 to 4). For each group, the mice were collected blood from their tail veins at 90 min after administering LPS, followed by assaying the concentrations of TNF-α, IL-6, and IL-10 contained in serum by the same method as in […].

[3] = test system: TNF-α in serum of mice administered with LPS; experiment: Serum TNF-α in LPS-administered mice, oral administration (Experiment 11); type: in vivo, BALB/c mice; settings: LPS 18 mg/kg i.p., serum 90 min after LPS
Procedure: as §1

## Nc1c2ncn([C@@H]3O[C@H](CO)[C@@H](O)[C@H]3O)c2nc[n+]1[O-] [ANO, adenosine N1-oxide]
[1]
  residual percentage: 100%
[2]; oral 100 mg/kg
  Amount of IL-10: 5.6* ng/mL
[2]; oral 200 mg/kg
  Amount of IL-10: 9.7** ng/mL
[3]; oral 100 mg/kg
  Amount of TNF-α: 1339 pg/mL
[3]; oral 200 mg/kg
  Amount of TNF-α: 874* pg/mL
